US20240190903A1, “COMPOUNDS FOR PROGRAMMABLE PROTEIN DEGRADATION AND METHODS OF USE FOR THE TREATMENT OF DISEASE” (Mayo Foundation for Medical Education and Research, priority 2021, published 2024)

Tests used:
293T and VCaP cell lines = assay: Fluorescent microscopy of FITC-labelled ERG O′PROTAC transfection/uptake; assay type: cell-based, human; details: 293T cells
Description: FIGS. 2A-2C. ERG O′PROTACs degrade ERG protein in cultured cells. (FIG. 2A) 293T cells were transfected with FITC-labelled ERG O′PROTAC-13 (100 nM and 1,000 nM), and the transfection efficiency was monitored 48 hours post-transfection using a fluorescent microscope. Scale bar: 50 μm. (FIG. 2B) 293T cells were transfected with HA-ERG plasmid and a control or six indicated ERG O′PROTACs (100 nM) and harvested for western blot analysis 48 hours post-transfection. ERK2 was used as a loading control. (FIG. 2C) VCaP cells were transfected with a control or six indicated ERG O′PROTACs (100 nM), and cells were harvested for western blot analysis 48 hours post-transfection. Both endogenous full-length (FL) wild-type and TMPRSS2-ERG (T2-ERG) truncated ERG were detected.
FIGS. 12A-12H. Phthalic acid-based ERG O′PROTAC degrades ERG oncoprotein. […] The P values were determined using the unpaired two-tailed Student's t-test. n.s. represents not significant by comparing the values in ERG O′PROTAC-treated groups to the control OP-treated group. […] The remaining ERG protein (%) was calculated by normalizing the value of each group to that of the group without ERG OP-C-P1 treatment. (FIG. 12H) The concentration of ERG OP-C-P1 degrading 50% of ERG protein (DC50) was calculated with Prism software. […]

[1] = physiological pH 7.4; hydrolysis of phthalimide and glutarimide moiety; cited from earlier work
[2] = tested on: PSGs and canonical β-Catenin target genes CCND1 and c-MYC; assay: RT-qPCR and western blot of PSGs, CCND1 and c-MYC in VCaP cells; assay type: cell-based, human
Description: PRI-724 is a pro-drug of C-82, a second-generation specific β—Catenin/CBP antagonist.
The total RNA was extracted from cultured cells or organoids using Trizol reagent (Thermo Fisher Scientific) according to the manufacturer's instructions. Complementary DNA was synthesized using reverse transcriptase (Promega). mRNA expression level was determined by real-time quantitative PCR (qPCR) using SYBR Green Mix (Thermo Fisher Scientific) with the realtime PCR system (Bio-Rad). Relative gene expression was normalized to the expression of house-keeping gene Actin Beta (ACTB).

VCaP cells = assay: MTS cell growth assay in VCaP cells; assay type: cell-based, human; details: compound added to cells, different doses
Description: VCaP cells were seeded at the density of 5,000 cells per well in 96-well plate overnight. At the indicated time points, optical density (OD) of cells was measured by microtiter reader (Biotek) at 490 nanometer after incubation with MTS (Promega) for 2 hours at 37° C. in a cell incubator. For the treatment with CP-2, ICG-001 or PRI-724, cells were seeded in 96-well plate overnight followed by adding indicated compounds. OD values were measured at the indicated time points.

VCaP xenografts = VCaP xenografts in SCID mice; assay type: in vivo; details: 25 mg/kg, 23 days
Description: For IHC, tissues were rehydrated, endogenous peroxidase activity was destroyed, and antigens were retrieval. Antibodies for IHC as following: anti-AR (ab108341, Abcam), anti-ERG (ab92513, Abcam), anti-Ki67 (ab15580), anti-UMPS (NOVUS, #85896), anti-RRM1 (Cell signaling technology, #8637), anti-CBP (Santa Cruz Biotechnology, sc-583), anti-LEF1 (Cell signaling technology, #2230S). For quantification, the staining score was determined by multiplying the percentage of positive cells and the intensity ranged from 1 (weak staining), 2 (median staining), and 3 (strong staining). For Ki67 quantification, cells with positive staining in the nucleus were included to calculate the percentage of Ki67 positive-staining cells.
Six-week SCID male mice were used in the study. Mice were subcutaneously injected with VCaP cells (5×10^6) mixed with Matrigel mixture (1×PBS: Matrigel (BD Biosciences)=1:1). After the xenografts reached a size of approximately 100 mm^3, mice were treated intraperitoneally with vehicle (90% corn oil (Sigma-Aldrich)+10% DMSO), ICG-001 or CBP PROTAC CP2 at 25 mg/kg for 5 days per week. For LEF1/TCF O′PROTAC administration, mice were transplanted with LuCaP23.1 PDX tumors in the approximately same volume. […] Tumor length (L) and width (W) were measured every 3 days, and tumor volumes were calculated by the formula: (L×W^2)/2. […]

Row | Compound | expression of PSGs, CCND1 and c-MYC at mRNA and protein levels [2] | VCaP cell growth (MTS) (VCaP cells) | other results
1 | FITC-ERG OP-C1: Forward 5′-FITC-ACGGACCGGAAATCCGGTT-3′; reverse 5′-P1-AACCGGATTTCCGGTCCGT-3′ |  |  | uptake efficacy at 100 nM versus 1,000 nM (293T and VCaP cell lines): no difference in uptake efficacy; cellular uptake with lipofectamine 2000 versus mock transfection (293T and VCaP cell lines; 100 or 1,000 nM): greatly enhanced the cellular uptake
2 | O=C1CCC(N2C(=O)c3ccccc3C2=O)C(=O)N1 (centres unmarked) [thalidomide] |  |  | stability [1]: poor stability
3 | C[C@H]1[C@H]2N(C(=O)CN(C)N2C(=O)NCc2ccccc2)[C@@H](Cc2ccc(OP(=O)(O)O)cc2)C(=O)N1Cc1cccc2cccnc12 [PRI-724] | inhibition | inhibition | 
4 | O=C1[C@H](Cc2ccc(O)cc2)N2C(=O)CCN(C(=O)NCc3ccccc3)[C@H]2CN1Cc1cccc2ccccc12 [ICG-001] | decreased expression | inhibited cell growth | mouse body weight (VCaP xenografts): did not result in obvious deleterious effect
